Results taken from patent US7250440B2, “(Hydroxyphenyl)-1H-indole-3-carbaldehyde oxime derivatives as estrogenic agents” (Wyeth, priority 2003, dated 2007).
pIC50: −log10 of the molar value. Read-outs that look alike come from different tables or passages of the source.

What was measured:
[1] = target: T1, human ERβ (Homo sapiens, UniProt Q92731); assay: Competition with [3H]-17β-estradiol for binding to the ERβ ligand binding domain
T1 construct: made in house; host or cells: E. coli
Experimental: (§1) Representative examples of the invention were evaluated for their ability to compete with 17β-estradiol for both ERα and ERβ. This test procedure provides the methodology for one to determine whether a particular compound binds to the estrogen receptor (and is therefore “estrogenic”) and whether there is selectivity for ERα or ERβ. […] 17β-estradiol is included as a standard reference for comparison. The procedure used is briefly described below. A crude lysate of E. coli expressing the estrogen receptor ligand binding domains D, E, & F) of human ERα or ERβ was prepared. Both receptors and compounds were diluted in 1× Dulbecco's PBS (DPBS) supplemented with 1 mM EDTA. Using a high binding masked microtiter plate, 100 uL of receptor (1 uG/well) was combined with 2 nM [^3H]-17β-estradiol and various concentrations of compound. After between 5 and 15 hours at room temperature, the plates were washed with DPBS/1 mM EDTA and bound radioactivity determined by liquid scintillation counting.

[2] = target: T2, human ERα (Homo sapiens, UniProt P03372); assay: Competition with [3H]-17β-estradiol for binding to the ERα ligand binding domain; conditions: crude E. coli lysate expressing human ERα ligand binding domain; 2 nM [3H]-17β-estradiol; 5-15 hours at room temperature
T2 construct: made in house; host or cells: E. coli
T2 sequence (P03372 311-547 limits assumed): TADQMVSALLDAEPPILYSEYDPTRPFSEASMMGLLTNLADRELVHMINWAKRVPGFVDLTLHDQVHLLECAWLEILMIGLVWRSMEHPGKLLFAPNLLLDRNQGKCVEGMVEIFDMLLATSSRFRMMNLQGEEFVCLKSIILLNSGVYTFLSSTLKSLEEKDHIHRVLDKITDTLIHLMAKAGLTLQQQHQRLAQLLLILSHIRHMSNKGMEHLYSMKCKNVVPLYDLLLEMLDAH
Experimental: as §1

T1 sequence (Q92731 264-498 limits assumed): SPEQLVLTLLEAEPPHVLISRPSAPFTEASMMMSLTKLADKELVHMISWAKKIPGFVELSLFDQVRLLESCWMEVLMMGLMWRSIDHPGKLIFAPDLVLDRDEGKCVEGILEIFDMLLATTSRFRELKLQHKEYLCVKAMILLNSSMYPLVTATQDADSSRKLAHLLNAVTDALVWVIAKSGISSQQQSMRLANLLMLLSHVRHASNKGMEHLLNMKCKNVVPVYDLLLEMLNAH

Row | pIC50 ([1]; crude E. coli lysate expressing human ERβ ligand binding domain, 2 nM [3H]-17β-estradiol, 5-15 hours at room temperature, read-out: ERβ) | SMILES | melting point | pIC50 [1] | pIC50 [2]
1 |  | O/N=C1\CCCc2c1c1ccccc1n2-c1ccc(O)cc1 [Example 8, (4E)-9-(4-Hydroxyphenyl)-1,2,3,9-tetrahydro-4H-carbazol-4-one oxime] | 227 to 229 °C | 8.00 | 6.82
2 |  | Cc1c(/C=N/O)c2cc(F)ccc2n1-c1ccc(O)cc1 [Example 5, 5-Fluoro-1-(4-hydroxyphenyl)-2-methyl-1H-indole-3-carbaldehyde oxime] | 162 to 163 °C | 8.21 | 7.04
3 |  | Cc1c(/C=N/O)c2cc(Br)ccc2n1-c1ccc(O)cc1 [Example 7, 5-Bromo-1-(4-hydroxyphenyl)-2-methyl-1H-indole-3-carbaldehyde oxime] | 209 to 211 °C | 7.03 | 6.63
4 |  | O/N=C/c1cn(-c2ccc(O)cc2)c2ccccc12 [Example 9, 1-(4-Hydroxyphenyl)-1H-indole-3-carbaldehyde oxime] | 95 to 97 °C |  | 
5 | 8.10 | Cc1c(/C=N/O)c2ccccc2n1-c1ccc(O)c(F)c1 [Example 10, 1-(3-Fluoro-4-hydroxyphenyl)-2-methyl-1H-indole-3-carbaldehyde oxime] | 182 to 184 °C |  | 
6 |  | Cc1c(/C=N/O)c2cc(Cl)ccc2n1-c1ccc(O)cc1 [Example 6, 5-Chloro-1-(4-hydroxyphenyl)-2-methyl-1H-indole-3-carbaldehyde oxime] | 212 to 213 °C | 7.54 | 6.84
7 |  | Cc1c(/C=N/O)c2ccccc2n1-c1ccc(O)cc1 [Example 4, 1-(4-Hydroxyphenyl)-2-methyl-1H-indole-3-carbaldehyde oxime] | 171 to 173 °C |  | 
